The values below come from ChEMBL document CHEMBL4622928, “Discovery of 5-(4-methylpiperazin-1-yl)-2-nitroaniline derivatives as a new class of SIRT6 inhibitors” (Bioorg Med Chem Lett, 2020).

For the experiment, the target named is NAD-dependent protein deacylase sirtuin-6 (Homo sapiens, UniProt Q8N6T7). Nature of the experiment: Inhibition of SIRT6 (unknown origin) using Ac-RYQK(Ac)-AMC as substrate by Fluor de Lys assay.
Sequence of NAD-dependent protein deacylase sirtuin-6 (Q8N6T7 whole entry): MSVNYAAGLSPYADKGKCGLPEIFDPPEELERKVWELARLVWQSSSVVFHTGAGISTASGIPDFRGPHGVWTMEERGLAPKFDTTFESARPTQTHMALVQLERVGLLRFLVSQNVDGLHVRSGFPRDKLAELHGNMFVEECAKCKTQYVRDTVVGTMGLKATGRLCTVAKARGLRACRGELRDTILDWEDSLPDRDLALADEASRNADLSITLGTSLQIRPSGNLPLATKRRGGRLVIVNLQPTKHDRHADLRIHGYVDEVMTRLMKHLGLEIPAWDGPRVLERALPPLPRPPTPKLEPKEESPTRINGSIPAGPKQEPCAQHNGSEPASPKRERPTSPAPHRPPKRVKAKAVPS
Compound `CN1CCN(c2ccc([N+](=O)[O-])cc2)CC1` registered an IC50 of 21.9 µM. This counts as double-digit micromolar.
The value for `CN1CCN(c2ccc([N+](=O)[O-])c(NC(=O)c3cc(Cl)nc4ccccc34)c2)CC1` was 12.4 µM; that for `CN1CCN(c2ccc([N+](=O)[O-])c(O)c2)CC1` was 11 µM.
The value for `COc1cc(N2CCN(C)CC2)ccc1[N+](=O)[O-]` was 9.09 µM; that for `CN1CCN(c2ccc([N+](=O)[O-])c(C(=O)Nc3cccc4ccccc34)c2)CC1` was 16.8 µM; that for `CN1CCN(c2ccc([N+](=O)[O-])c(C(F)(F)F)c2)CC1` was 21.1 µM.
Under `COC(=O)c1cc(N2CCN(C)CC2)ccc1[N+](=O)[O-]` stands 9.46 µM; under `CN1CCN(c2ccc([N+](=O)[O-])c(C(=O)NCc3ccccc3)c2)CC1`, 17.5 µM; under `CN1CCN(c2ccc([N+](=O)[O-])c(NCc3ccccc3)c2)CC1`, 12.5 µM.
Regarding `CN1CCN(c2ccc([N+](=O)[O-])c(C(=O)Nc3ccc(Oc4ccccc4)cc3)c2)CC1`, the IC50 was 20.9 µM.
